Activity calls are given as the source filed them.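 How the source made its calls: active means more than half of replicate measurements showing over 20% loss of kinase signal relative to plate controls; inconclusive means some but at most half of replicates over 20% loss; inactive means no replicate over 20% signal loss.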
Target: Glycogen synthase kinase-3 alpha (Homo sapiens) (UniProt P49840)
Assay: concentration-response blocking of human GSK3A – biochemical, luminescence, cell-free homogeneous, retest, dose response (AID 463203)
Settings: GSK-3 alpha enzyme, ADP-Glo luminescence, 60 min

Sequence of Glycogen synthase kinase-3 alpha (Homo sapiens) (P49840 whole entry, looked up): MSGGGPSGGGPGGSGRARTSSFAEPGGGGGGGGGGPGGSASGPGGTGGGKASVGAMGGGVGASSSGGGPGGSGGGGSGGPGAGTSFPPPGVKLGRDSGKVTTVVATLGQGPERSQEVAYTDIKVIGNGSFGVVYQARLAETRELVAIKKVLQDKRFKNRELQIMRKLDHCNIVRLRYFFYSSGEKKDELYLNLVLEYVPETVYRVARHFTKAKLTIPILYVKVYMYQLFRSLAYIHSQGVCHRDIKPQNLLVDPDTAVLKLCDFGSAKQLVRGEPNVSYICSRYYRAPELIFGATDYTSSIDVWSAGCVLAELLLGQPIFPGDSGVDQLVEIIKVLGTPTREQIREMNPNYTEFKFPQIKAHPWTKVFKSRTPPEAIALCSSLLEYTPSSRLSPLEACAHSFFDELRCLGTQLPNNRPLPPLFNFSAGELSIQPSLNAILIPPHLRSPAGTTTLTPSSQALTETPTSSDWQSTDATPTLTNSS

| SMILES | AC50 |
| --- | --- |
| O=C(Nc1cccc(C(=O)N2CCOCC2)c1)c1cccnc1 | > 30 µM (inactive) |
| COc1ccccc1C(=O)Nc1nc(C)cc(C)n1 | > 30 µM (inactive) |
| O=C(CSc1nc2[nH]ncc2c(=O)n1-c1ccccc1)NCc1cccs1 | > 30 µM (inactive) |
| O=C1NC(=Nc2ccccc2Cl)S/C1=C\c1cccc([N+](=O)[O-])c1 | > 30 µM (inactive) |
| O=C(COC(=O)c1ccc(F)cc1F)Nc1ccc(Cl)cn1 | > 30 µM (inactive) |
| CC(C)c1c(C(=O)N/N=C/c2ccncc2)nnn1-c1nonc1N | > 30 µM (inactive) |
| COCC(O)CSc1nc(C)[nH]c1[N+](=O)[O-] (stereo unspecified) | > 30 µM (inactive) |
| CCCNC(=O)NC(C(=O)OC)C12CC3CC(CC(C3)C1)C2 (stereo unspecified) | > 30 µM (inactive) |
| CC(=O)Oc1cc2c3c(c1)/C(=C1/SC(=S)NC1=O)C(=O)N3C(C)(C)C=C2C | > 30 µM (inactive) |
| COc1cc(C2CC(=O)c3c([nH]c(C(=O)OCCOC(C)C)c3C)C2)cc(OC)c1OC (stereo unspecified) | > 30 µM (inactive) |
| O=C(NCc1c(F)cccc1F)c1cc(COc2c(F)cccc2F)on1 | > 30 µM (inactive) |
| NC(=O)c1cccc(S(=O)(=O)N2CC(c3ccccc3)CC2=O)c1 (stereo unspecified) | > 30 µM (inactive) |
| COc1ccc(OCc2nc(N)nc(Nc3ccccc3OC)n2)cc1 | > 30 µM (inactive) |
| N#Cc1c2c(c(NCc3ccco3)n3c1nc1ccccc13)CCC2 | > 30 µM (inactive) |
| Cc1cc(=O)[nH]c2cc(O)ccc12 | > 30 µM (inactive) |
| O=C(COC(=O)Cc1ccc(F)cc1)Nc1ccc(Cl)cn1 | 14.1 µM |
| CCCCCCCNc1nc(Cl)nc(NCCO)n1 | > 30 µM (inactive) |
| COC(=O)c1ccc(CSc2nnc(SCc3ccc(C(=O)OC)o3)s2)o1 | > 30 µM (inactive) |
| O=C(c1ccc(Cn2cnnn2)cc1)N1CCCC(Nc2ccc(F)cc2)C1 (stereo unspecified) | 16.1 µM |
| COC(=O)c1ccc2c(=O)[nH]c(COC(=O)c3cccc(S(=O)(=O)N4CCOCC4)c3)nc2c1 | 6.88 µM |
| CCOC(=O)c1cnc2c(C(F)(F)F)cccc2c1N1CCN(C)CC1 | > 30 µM (inactive) |
| CN1/C(=C/C2CC(=O)NC2=O)C(C)(C)c2ccccc21 (stereo unspecified) | 5.14 µM |
| COc1ccc2ccccc2c1C1CC(=O)N2CN(Cc3ccco3)CSC2=C1C#N (stereo unspecified) | > 30 µM (inactive) |
| COc1cccc(CNc2nc(C(F)(F)F)nc3ccccc23)c1 | > 30 µM (inactive) |
| CCCCCCCCCCCCCCCC[N+](C)(C)CC | > 30 µM (inactive) |
| CC(C)CC(=O)Nc1ccc(-c2cn3cccnc3n2)cc1 | > 30 µM (inactive) |

| SMILES | AC50 |
| --- | --- |
| Cc1ccc(S(=O)(=O)N2CCN(CC(=O)N/N=C\c3ccccn3)CC2)cc1 | > 30 µM (inactive) |
| Cc1sc2ncnc(NCCN3CCOCC3)c2c1C | > 30 µM (inactive) |
| O=c1cc[nH]c2ccc(OC(F)(F)F)cc12 | > 30 µM (inactive) |
| COc1ccc(Cn2nnc(C(=O)Nc3ccc(F)cc3)c2N)cc1 | > 30 µM (inactive) |
| O=C(c1ccc2c(c1)OCO2)N1CCC2(CC1)OCCO2 | > 30 µM (inactive) |
| O=c1[nH]nc(SCc2nnc(-c3cccc(Cl)c3)o2)n1C1CCCCC1 | > 30 µM (inactive) |
| OCc1cn(-c2ccccc2)nn1 | > 30 µM (inactive) |
| Cc1ccc(-n2nnnc2SCc2nnc(-c3ccccc3Br)o2)cc1 | > 30 µM (inactive) |
| CC(=O)Nc1ccc(CC#N)cc1 | > 30 µM (inactive) |
| COc1ccc(NC(=O)CSc2nnc(-c3cccc(O)c3)o2)cc1 | > 30 µM (inactive) |
| O=C(c1ccco1)c1cn(CC(=O)N2CCCC2)c2ccccc12 | > 30 µM (inactive) |
| O=C1CCCC2=C1C(c1ccc(O)cc1)c1c(ccc3ccccc13)N2 (stereo unspecified) | > 30 µM (inactive) |
| CN1CCc2nc3sc(C#N)c(N)c3c(-c3cccs3)c2C1 | 0.675 µM |
| O=[N+]([O-])c1ccc(-c2nnc(CNC3CCCC3)o2)cc1 | > 30 µM (inactive) |
| COc1ccc(-n2c(O)c(C(C)=NCCCn3ccnc3)c(=O)[nH]c2=O)cc1 | 19 µM |
| COc1cc(/C=N/NC(=O)c2ccoc2C)ccc1O | > 30 µM (inactive) |
| Cc1ccc(S(=O)(=O)Nc2ccc(O)c3ncccc23)cc1 | > 30 µM (inactive) |
| CN(C)c1ncnc2c1ncn2C1OC(CO)C(O)C1O (stereo unspecified) | > 30 µM (inactive) |
| COc1ccc(N=c2oc3c(OC)cccc3cc2C(=O)NCc2ccco2)cc1OC | > 30 µM (inactive) |
| O=C1C(SCCO)=C(SCCO)C(=O)c2ccccc21 | > 30 µM (inactive) |
| COc1ccc(-n2c(O)c(C=NCc3ccc4c(c3)OCO4)c(=O)[nH]c2=O)cc1 | > 30 µM (inactive) |
| Fc1ccc(/C=N/Nc2nc3ccccc3[nH]2)cc1F | > 30 µM (inactive) |
| CCN(CC)CCCNc1ncnc2scc(-c3ccc(F)cc3)c12 | > 30 µM (inactive) |
| COc1ccc(OC)c(C2CC(=O)N3CN(c4cccc(Cl)c4)CSC3=C2C#N)c1 (stereo unspecified) | > 30 µM (inactive) |
| CCOC(=O)c1ccc(N2CSC3=C(C#N)C(c4ccc(OC)cc4OC)CC(=O)N3C2)cc1 (stereo unspecified) | > 30 µM (inactive) |
| COc1ccc(Nc2nc(S(=O)(=O)c3ccc(C)cc3)c(Cl)s2)cc1 | > 30 µM (inactive) |

| SMILES | AC50 |
| --- | --- |
| Cc1ccc(/C=N/NC(=O)c2nnn(-c3nonc3N)c2CN(C)C)o1 | > 30 µM (inactive) |
| Cc1ccc(N2C(S)=C(C#N)C(=O)NC2c2ccco2)cc1 (stereo unspecified) | > 30 µM (inactive) |
| Fc1ccc(Nc2ncnc3ccccc23)cc1 | > 30 µM (inactive) |
| Cc1cccc(C)c1OCC(=O)N=Nc1c(O)[nH]c2ccc(Br)cc12 | > 30 µM (inactive) |
| Cc1nc(Nc2ccc(F)cc2)nc(Nc2ccc(F)cc2)c1[N+](=O)[O-] | > 30 µM (inactive) |
| CC(OC(=O)Cc1c[nH]c2ccccc12)C(=O)c1ccccc1 (stereo unspecified) | > 30 µM (inactive) |
| Cn1cnnc1Sc1ccc(CN2CCN(C3CCCC3)C(CCO)C2)o1 (stereo unspecified) | > 30 µM (inactive) |
| CCCc1cc(=O)[nH]c(SCC(=O)Nc2sc3c(c2C(N)=O)CCCC3)n1 | > 30 µM (inactive) |
| CC1(C)Cc2nc3sc4c(SCC(=O)O)ncnc4c3cc2CO1 | 6.18 µM |
| Cc1ccc2c(c1)N(CCC(=O)NC(C)C)C(=O)CO2 | > 30 µM (inactive) |
| O=C1/C(=C/c2cccc([N+](=O)[O-])c2)N2CCC1CC2 | > 30 µM (inactive) |
| CCOC(=O)c1ccc(NC(=O)CSCc2ccco2)cc1 | > 30 µM (inactive) |
| Cc1sc(NC(=O)CSc2nc(N)cc(N)n2)c(C#N)c1C | > 30 µM (inactive) |
| O=[N+]([O-])c1ccc(NCCCN2CCOCC2)c([N+](=O)[O-])c1 | > 30 µM (inactive) |
| c1cncc(-c2nc3ccccc3[nH]2)c1 | > 30 µM (inactive) |
| c1ccc2sc(-c3ccc4c(c3)OCO4)nc2c1 | > 30 µM (inactive) |
| CC1(C)Oc2ccc3ccc(=O)oc3c2-c2cnoc21 | > 30 µM (inactive) |
| Cc1cccc(-n2nc(C)c3c2NC2=C(C(=O)CCC2)C3c2ccccn2)c1 (stereo unspecified) | > 30 µM (inactive) |
| CC(C)(C)N=Cc1c(O)ccc2oc3c(c12)CCCC3 | > 30 µM (inactive) |
| CC1(C)Cc2cccc(C(=O)Nc3ccncc3)c2O1 | 5.8 µM |
| CNC(=O)CSc1nnc(-c2ccco2)n1-c1cccc(OC)c1 | > 30 µM (inactive) |
| COCCNC(=O)Cn1cnc([N+](=O)[O-])n1 | > 30 µM (inactive) |
| Cc1c(O)ccc2c3c(c(=O)oc12)CCC(C)C3 (stereo unspecified) | > 30 µM (inactive) |
| O=c1oc2cc(O)ccc2c2ccccc12 | > 30 µM (inactive) |

Source: PubChem BioAssay AID463203 (Broad Institute, 2010)
